Measurements reported in patent US4235666A, “1,2,3,4,4a,9a-Hexahydro-9,10-anthracene-dione, its preparation and its application to the delignification of lignocellulosic materials” (Produits Chimiques Ugine Kuhlmann, priority 1978, dated 1980).
Entries after “also recorded” stand apart in the source; their conditions may differ. Like-named read-outs stand apart in the source and are kept apart here.

Legend:
Parameters in all cases: species or system moorland maritime pine
[1] = Caustic soda cooking (delignification) with adjuvant; conditions: for Kappa index: NFT 12018
Protocol: Shavings of moorland maritime pine are subjected to heating in an autoclave with a caustic soda liquor. The cooking conditions are as follows:
Amount of caustic soda: 22% by weight with respect to the dry vegetable material.
Ratio of liquor/vegetable material: 4
Temperature of cooking: 170° C.
Time in which the cooking temperature
Time of cooking: 90 minutes
Amount of adjuvant: 0-0.1%-0.5%-1% by weight with respect to the dry vegetable material
After cooking, the pulps obtained are washed, disintegrated on a 3 mm grid (Vewerk grader or sorter).
The crude yield and the yield of sorted pulp are determined on the pulps, and the Kappa index according to French standard NFT 12018 are determined on the raw pulps.
The pH and the consumption of caustic soda are determined on the liquors after cooking.
A comparative test with 0.5% of anthraquinone was carried out under the same operational conditions as in Example 9.

[2] = Mechanical characteristics of raw pulps from caustic soda cooking, refined at 40° SR; conditions: for Index of rupture / Index of tearing / Length of rupture / Resistance to bending: 0.5% adjuvant, 40° SR
Protocol: (§1) The raw pulps for reference and those obtained with 0.5% of adjuvant in the cooking are refined in a Jokro mill.
(§2) Sheets for physical tests are produced on a Rapid Kothen mold. Their weight per m^2 is about 70 g.
(§3) The following mechanical characteristics are determined:
(§4) Length of break: AFNOR NFQ 03004 standard
(§5) Index of splitting or cracking: AFNOR NFQ 03014 standard
(§6) Tearing index: AFNOR NFQ 03011 standard
(§7) Resistance to bending or folding: AFNOR NFQ 03001 standard
The mechanical characteristics of the raw or unwashed pulps obtained after heating with caustic soda in the presence of 0.5% of adjuvant are compared with those of a conventional Kraft pulp (Table IV).
Mechanical characteristics of raw pulps refined at
40° SR caustic soda cooking with 0.5% of adjuvant

[3] = Kraft cooking (caustic soda-sulfuric liquor) with adjuvant
Protocol: Shavings from moorland maritime pine are subjected to cooking in an autoclave with a caustic soda-sulfuric liquor under the following conditions:
Proportion of active alkali: 22% by weight with respect to the dry vegetable material,
Sulfidity: 25% with respect to the active alkali,
Ratio liquor/vegetable material: 4
Temperature of heating: 170° C.
Time taken to arrive at the heating temperature: 90 min.,
Time of heating: 120 min.
Amount of adjuvant: 0-0.1%-0.5%-1% by weight with respect to the dry vegatable material.
After cooking, the same operations as those described in Example 9 are carried out on the pulps and the cooking liquors. […]

[4] = Mechanical characteristics of crude pulps from Kraft cooking, refined at 40° SR; conditions: for Index of rupture / Index of tearing / Length of rupture / Resistance to bending: 0.5% adjuvant, 40° SR
Protocol: as §1, §2, §3, §4, §5, §6, §7
After cooking, the same operations as those described in Example 9 are carried out on the pulps and the cooking liquors.
A comparative test with 0.5% of anthraquinone is effected under the same operational conditions as in Example 11. The mechanical characteristics of the pulps obtained are compared with those of a Kraft pulp for reference (Table VII).
Mechanical characteristics of the crude pulps refined at
40° SR Kraft cooking with 0.5% of adjuvant

O=C1c2ccccc2C(=O)C2CCCCC12 (stereo not drawn) [6 HAD, 1,2,3,4,4a,9a-hexahydro-9,10-anthracene-dione]
effect on delignification [1]: has the same effect as the anthraquinone | % Caustic soda consumed/wood ([1]; 0.1% adjuvant): 16.9% | Classified yield ([1]; 0.1% adjuvant): 45.7% | Crude yield ([1]; 0.1% adjuvant): 46.2% | Kappa index ([1]; 0.1% adjuvant): 51.7 | % Caustic soda consumed/wood ([1]; 0.5% adjuvant): 17.9% | Classified yield ([1]; 0.5% adjuvant): 45.5% | Crude yield ([1]; 0.5% adjuvant): 45.8% | Kappa index ([1]; 0.5% adjuvant): 33.4 | % Caustic soda consumed/wood ([1]; 1% adjuvant): 18.1% | Classified yield ([1]; 1% adjuvant): 45.5% | Crude yield ([1]; 1% adjuvant): 45.7% | Kappa index ([1]; 1% adjuvant): 28.0 | effect on delignification ([1]; listed as 1,2,3,4,4a,9a-hdxahydro9,10-anthracene-dione): accelerates the delignification and makes it more selective | Index of rupture [2]: 4.82 | Index of tearing [2]: 922 | Length of rupture [2]: 7,030 m | Resistance to bending [2]: 1,846 | quality / mechanical properties of pulps ([2]; compared with conventional Kraft pulp): very near to the quality of the conventional Kraft pulp; also recorded: mechanical properties similar to those of Kraft pulps with a similar yield and Kappa indexes | effect on delignification, Kappa index and yield [3]: enables the Kappa index of the pulps to be appreciably lowered without alteration of the mechanical properties; also recorded: With identical Kappa indexes, yields greater than those of the Kraft process referred to can be obtained; also recorded: increases the kinetics and the selectivity of the delignification; also recorded: decrease of the Kappa index of the pulps without reduction of the yield of the cooking | % Effective alkali consumed/wood ([3]; 0.1% adjuvant): 17.5% | Classified yield ([3]; 0.1% adjuvant): 44.3% | Crude yield ([3]; 0.1% adjuvant): 44.6% | Kappa index ([3]; 0.1% adjuvant): 27.4 | % Effective alkali consumed/wood ([3]; 0.5% adjuvant): 17.9% | Classified yield ([3]; 0.5% adjuvant): 44.5% | Crude yield ([3]; 0.5% adjuvant): 44.8% | Kappa index ([3]; 0.5% adjuvant): 24.2 | % Effective alkali consumed/wood ([3]; 1% adjuvant): 18.2% | Classified yield ([3]; 1% adjuvant): 44.3% | Crude yield ([3]; 1% adjuvant): 44.4% | Kappa index ([3]; 1% adjuvant): 22.0 | mechanical characteristics / degradation of pulps [4]: more favorable than that of anthraquinone | Index of rupture ([4]; Kraft cooking): 5.55 | Index of tearing ([4]; Kraft cooking): 847 | Length of rupture ([4]; Kraft cooking): 7,000 m | Resistance to bending ([4]; Kraft cooking): 1,917

O=C1c2ccccc2C(=O)c2ccccc21 [Anthraquinone, anthraquinone, reference compound]
% Caustic soda consumed/wood ([1]; 0.5% adjuvant): 17.5% | Classified yield ([1]; 0.5% adjuvant): 46.2% | Crude yield ([1]; 0.5% adjuvant): 46.8% | Kappa index ([1]; 0.5% adjuvant): 32.2 | Index of rupture [2]: 5.07 | Index of tearing [2]: 813 | Length of rupture [2]: 7,230 m | Resistance to bending [2]: 945 | % Effective alkali consumed/wood ([3]; 0.5% adjuvant): 17.4% | Classified yield ([3]; 0.5% adjuvant): 43.8% | Crude yield ([3]; 0.5% adjuvant): 44% | Kappa index ([3]; 0.5% adjuvant): 24.3 | mechanical characteristics / degradation of pulps ([4]; Kraft cooking): inferior mechanical characteristics; also recorded: a relatively large degradation is observed | Index of rupture ([4]; Kraft cooking): 4.48 | Index of tearing ([4]; Kraft cooking): 808 | Length of rupture ([4]; Kraft cooking): 5,850 m | Resistance to bending ([4]; Kraft cooking): 905
